Numbers after ± are expanded uncertainties.
Assays:
[1] = excess molar enthalpy (molar enthalpy of mixing); xn = mol fraction of the nth substance listed; conditions: 303.15 K, 101 kPa, Liquid, Calvet calorimetry
[2] = xn = mol fraction of the nth substance listed; conditions: 101 kPa, Liquid, Vibrating tube method
[3] = molar heat capacity at constant pressure; xn = mol fraction of the nth substance listed; conditions: 101 kPa, Liquid, Small sample (50 mg) DSC

CCn1cc[n+](C)c1.O=S(=O)([O-])C(F)(F)F [1-ethyl-3-methylimidazolium trifluoromethanesulfonate] + CCO
excess molar enthalpy ([1]; x1 = 0.1271): 0.291 ± 0.0234 kcal/mol
excess molar enthalpy ([1]; x1 = 0.2489): 0.411 ± 0.0335 kcal/mol
excess molar enthalpy ([1]; x1 = 0.3752): 0.449 ± 0.0359 kcal/mol
excess molar enthalpy ([1]; x1 = 0.5006): 0.424 ± 0.0335 kcal/mol
excess molar enthalpy ([1]; x1 = 0.6176): 0.363 ± 0.0287 kcal/mol
excess molar enthalpy ([1]; x1 = 0.7501): 0.26 ± 0.0208 kcal/mol
excess molar enthalpy ([1]; x1 = 0.869): 0.143 ± 0.0115 kcal/mol
mass density ([2]; 293.15 K, x1 = 0.0523): 883.9 ± 0.4 kg/m3
mass density ([2]; 293.15 K, x1 = 0.1): 953 ± 0.3 kg/m3
mass density ([2]; 293.15 K, x1 = 0.1959): 1059.7 ± 0.3 kg/m3
mass density ([2]; 293.15 K, x1 = 0.2927): 1138.5 ± 0.3 kg/m3
mass density ([2]; 293.15 K, x1 = 0.3819): 1194.5 ± 0.3 kg/m3
mass density ([2]; 293.15 K, x1 = 0.4917): 1248.4 ± 0.3 kg/m3
mass density ([2]; 293.15 K, x1 = 0.5983): 1289.4 ± 0.3 kg/m3
mass density ([2]; 293.15 K, x1 = 0.6899): 1318.8 ± 0.3 kg/m3
mass density ([2]; 293.15 K, x1 = 0.7829): 1343.7 ± 0.3 kg/m3
mass density ([2]; 293.15 K, x1 = 0.8784): 1365.6 ± 0.3 kg/m3
mass density ([2]; 298.15 K, x1 = 0.0523): 879.6 ± 0.4 kg/m3
mass density ([2]; 298.15 K, x1 = 0.1): 948.7 ± 0.3 kg/m3
mass density ([2]; 298.15 K, x1 = 0.1959): 1055.4 ± 0.3 kg/m3
mass density ([2]; 298.15 K, x1 = 0.2927): 1134.1 ± 0.3 kg/m3
mass density ([2]; 298.15 K, x1 = 0.3819): 1190.2 ± 0.3 kg/m3
mass density ([2]; 298.15 K, x1 = 0.4917): 1244.1 ± 0.3 kg/m3
mass density ([2]; 298.15 K, x1 = 0.5983): 1285.1 ± 0.3 kg/m3
mass density ([2]; 298.15 K, x1 = 0.6899): 1314.5 ± 0.3 kg/m3
mass density ([2]; 298.15 K, x1 = 0.7829): 1339.4 ± 0.3 kg/m3
mass density ([2]; 298.15 K, x1 = 0.8784): 1361.4 ± 0.3 kg/m3
mass density ([2]; 303.15 K, x1 = 0.0523): 875.3 ± 0.4 kg/m3
mass density ([2]; 303.15 K, x1 = 0.1): 944.4 ± 0.3 kg/m3
mass density ([2]; 303.15 K, x1 = 0.1959): 1051.1 ± 0.3 kg/m3
mass density ([2]; 303.15 K, x1 = 0.2927): 1129.8 ± 0.3 kg/m3
mass density ([2]; 303.15 K, x1 = 0.3819): 1185.9 ± 0.3 kg/m3
mass density ([2]; 303.15 K, x1 = 0.4917): 1239.9 ± 0.3 kg/m3
mass density ([2]; 303.15 K, x1 = 0.5983): 1280.9 ± 0.3 kg/m3
mass density ([2]; 303.15 K, x1 = 0.6899): 1310.3 ± 0.3 kg/m3
mass density ([2]; 303.15 K, x1 = 0.7829): 1335.2 ± 0.3 kg/m3
mass density ([2]; 303.15 K, x1 = 0.8784): 1357.2 ± 0.3 kg/m3
mass density ([2]; 308.15 K, x1 = 0.0523): 871 ± 0.4 kg/m3
mass density ([2]; 308.15 K, x1 = 0.1): 940.2 ± 0.3 kg/m3
mass density ([2]; 308.15 K, x1 = 0.1959): 1046.8 ± 0.3 kg/m3
mass density ([2]; 308.15 K, x1 = 0.2927): 1125.6 ± 0.3 kg/m3
mass density ([2]; 308.15 K, x1 = 0.3819): 1181.6 ± 0.3 kg/m3
mass density ([2]; 308.15 K, x1 = 0.4917): 1235.6 ± 0.3 kg/m3
mass density ([2]; 308.15 K, x1 = 0.5983): 1276.7 ± 0.3 kg/m3
mass density ([2]; 308.15 K, x1 = 0.6899): 1306.1 ± 0.3 kg/m3
mass density ([2]; 308.15 K, x1 = 0.7829): 1331 ± 0.3 kg/m3
mass density ([2]; 308.15 K, x1 = 0.8784): 1353 ± 0.3 kg/m3
mass density ([2]; 313.15 K, x1 = 0.0523): 866.7 ± 0.4 kg/m3
mass density ([2]; 313.15 K, x1 = 0.1): 935.8 ± 0.3 kg/m3
mass density ([2]; 313.15 K, x1 = 0.1959): 1042.5 ± 0.3 kg/m3
mass density ([2]; 313.15 K, x1 = 0.2927): 1121.3 ± 0.3 kg/m3
mass density ([2]; 313.15 K, x1 = 0.3819): 1177.3 ± 0.3 kg/m3
mass density ([2]; 313.15 K, x1 = 0.4917): 1231.4 ± 0.3 kg/m3
mass density ([2]; 313.15 K, x1 = 0.5983): 1272.4 ± 0.3 kg/m3
mass density ([2]; 313.15 K, x1 = 0.6899): 1301.9 ± 0.3 kg/m3
mass density ([2]; 313.15 K, x1 = 0.7829): 1326.8 ± 0.3 kg/m3
mass density ([2]; 313.15 K, x1 = 0.8784): 1348.8 ± 0.3 kg/m3
mass density ([2]; 318.15 K, x1 = 0.0523): 862.2 ± 0.4 kg/m3
mass density ([2]; 318.15 K, x1 = 0.1): 931.4 ± 0.3 kg/m3
mass density ([2]; 318.15 K, x1 = 0.1959): 1038.1 ± 0.3 kg/m3
mass density ([2]; 318.15 K, x1 = 0.2927): 1116.9 ± 0.3 kg/m3
mass density ([2]; 318.15 K, x1 = 0.3819): 1173 ± 0.3 kg/m3
mass density ([2]; 318.15 K, x1 = 0.4917): 1227.1 ± 0.3 kg/m3
mass density ([2]; 318.15 K, x1 = 0.5983): 1268.2 ± 0.3 kg/m3
mass density ([2]; 318.15 K, x1 = 0.6899): 1297.7 ± 0.3 kg/m3
mass density ([2]; 318.15 K, x1 = 0.7829): 1322.6 ± 0.3 kg/m3
mass density ([2]; 318.15 K, x1 = 0.8784): 1344.7 ± 0.3 kg/m3
molar heat capacity at constant pressure ([3]; 293.15 K, x1 = 0.0523): 125.1 ± 1.9 J/K/mol
molar heat capacity at constant pressure ([3]; 293.15 K, x1 = 0.1): 138.9 ± 2.2 J/K/mol
molar heat capacity at constant pressure ([3]; 293.15 K, x1 = 0.1959): 164.1 ± 2.5 J/K/mol
molar heat capacity at constant pressure ([3]; 293.15 K, x1 = 0.2927): 188.3 ± 2.9 J/K/mol
molar heat capacity at constant pressure ([3]; 293.15 K, x1 = 0.3819): 209.7 ± 3.2 J/K/mol
molar heat capacity at constant pressure ([3]; 293.15 K, x1 = 0.4917): 236 ± 3.7 J/K/mol
molar heat capacity at constant pressure ([3]; 293.15 K, x1 = 0.5983): 261.7 ± 4.1 J/K/mol
molar heat capacity at constant pressure ([3]; 293.15 K, x1 = 0.6899): 283.9 ± 4.4 J/K/mol
molar heat capacity at constant pressure ([3]; 293.15 K, x1 = 0.7829): 306.8 ± 4.8 J/K/mol
molar heat capacity at constant pressure ([3]; 293.15 K, x1 = 0.8784): 330.5 ± 5.1 J/K/mol
molar heat capacity at constant pressure ([3]; 298.15 K, x1 = 0.0523): 126.8 ± 2 J/K/mol
molar heat capacity at constant pressure ([3]; 298.15 K, x1 = 0.1): 140.4 ± 2.2 J/K/mol
molar heat capacity at constant pressure ([3]; 298.15 K, x1 = 0.1959): 165.4 ± 2.6 J/K/mol
molar heat capacity at constant pressure ([3]; 298.15 K, x1 = 0.2927): 189.5 ± 2.9 J/K/mol
molar heat capacity at constant pressure ([3]; 298.15 K, x1 = 0.3819): 211 ± 3.3 J/K/mol
molar heat capacity at constant pressure ([3]; 298.15 K, x1 = 0.4917): 237.4 ± 3.7 J/K/mol
molar heat capacity at constant pressure ([3]; 298.15 K, x1 = 0.5983): 263.3 ± 4.1 J/K/mol
molar heat capacity at constant pressure ([3]; 298.15 K, x1 = 0.6899): 285.4 ± 4.4 J/K/mol
molar heat capacity at constant pressure ([3]; 298.15 K, x1 = 0.7829): 308.5 ± 4.8 J/K/mol
molar heat capacity at constant pressure ([3]; 298.15 K, x1 = 0.8784): 332.5 ± 5.2 J/K/mol
molar heat capacity at constant pressure ([3]; 303.15 K, x1 = 0.0523): 128.4 ± 2 J/K/mol
molar heat capacity at constant pressure ([3]; 303.15 K, x1 = 0.1): 142 ± 2.2 J/K/mol
molar heat capacity at constant pressure ([3]; 303.15 K, x1 = 0.1959): 166.7 ± 2.6 J/K/mol
molar heat capacity at constant pressure ([3]; 303.15 K, x1 = 0.2927): 190.7 ± 3 J/K/mol
molar heat capacity at constant pressure ([3]; 303.15 K, x1 = 0.3819): 212.3 ± 3.3 J/K/mol
molar heat capacity at constant pressure ([3]; 303.15 K, x1 = 0.4917): 238.8 ± 3.7 J/K/mol
molar heat capacity at constant pressure ([3]; 303.15 K, x1 = 0.5983): 264.9 ± 4.1 J/K/mol
molar heat capacity at constant pressure ([3]; 303.15 K, x1 = 0.6899): 286.9 ± 4.4 J/K/mol
molar heat capacity at constant pressure ([3]; 303.15 K, x1 = 0.7829): 310.3 ± 4.8 J/K/mol
molar heat capacity at constant pressure ([3]; 303.15 K, x1 = 0.8784): 334.5 ± 5.2 J/K/mol
molar heat capacity at constant pressure ([3]; 308.15 K, x1 = 0.0523): 130.3 ± 2 J/K/mol
molar heat capacity at constant pressure ([3]; 308.15 K, x1 = 0.1): 143.8 ± 2.2 J/K/mol
molar heat capacity at constant pressure ([3]; 308.15 K, x1 = 0.1959): 168.1 ± 2.6 J/K/mol
molar heat capacity at constant pressure ([3]; 308.15 K, x1 = 0.2927): 192.1 ± 3 J/K/mol
molar heat capacity at constant pressure ([3]; 308.15 K, x1 = 0.3819): 213.8 ± 3.3 J/K/mol
molar heat capacity at constant pressure ([3]; 308.15 K, x1 = 0.4917): 240.4 ± 3.7 J/K/mol
molar heat capacity at constant pressure ([3]; 308.15 K, x1 = 0.5983): 266.5 ± 4.1 J/K/mol
molar heat capacity at constant pressure ([3]; 308.15 K, x1 = 0.6899): 288.5 ± 4.5 J/K/mol
molar heat capacity at constant pressure ([3]; 308.15 K, x1 = 0.7829): 312.2 ± 4.8 J/K/mol
molar heat capacity at constant pressure ([3]; 308.15 K, x1 = 0.8784): 336.6 ± 5.2 J/K/mol
molar heat capacity at constant pressure ([3]; 313.15 K, x1 = 0.0523): 132.2 ± 2 J/K/mol
molar heat capacity at constant pressure ([3]; 313.15 K, x1 = 0.1): 145.5 ± 2.3 J/K/mol
molar heat capacity at constant pressure ([3]; 313.15 K, x1 = 0.1959): 169.5 ± 2.6 J/K/mol
molar heat capacity at constant pressure ([3]; 313.15 K, x1 = 0.2927): 193.5 ± 3 J/K/mol
molar heat capacity at constant pressure ([3]; 313.15 K, x1 = 0.3819): 215.2 ± 3.3 J/K/mol
molar heat capacity at constant pressure ([3]; 313.15 K, x1 = 0.4917): 241.9 ± 3.7 J/K/mol
molar heat capacity at constant pressure ([3]; 313.15 K, x1 = 0.5983): 268.2 ± 4.2 J/K/mol
molar heat capacity at constant pressure ([3]; 313.15 K, x1 = 0.6899): 290.1 ± 4.5 J/K/mol
molar heat capacity at constant pressure ([3]; 313.15 K, x1 = 0.7829): 314.1 ± 4.9 J/K/mol
molar heat capacity at constant pressure ([3]; 313.15 K, x1 = 0.8784): 338.7 ± 5.2 J/K/mol
molar heat capacity at constant pressure ([3]; 318.15 K, x1 = 0.0523): 134.2 ± 2.1 J/K/mol
molar heat capacity at constant pressure ([3]; 318.15 K, x1 = 0.1): 147.4 ± 2.3 J/K/mol
molar heat capacity at constant pressure ([3]; 318.15 K, x1 = 0.1959): 171.1 ± 2.7 J/K/mol
molar heat capacity at constant pressure ([3]; 318.15 K, x1 = 0.2927): 195 ± 3 J/K/mol
molar heat capacity at constant pressure ([3]; 318.15 K, x1 = 0.3819): 216.9 ± 3.4 J/K/mol
molar heat capacity at constant pressure ([3]; 318.15 K, x1 = 0.4917): 243.6 ± 3.8 J/K/mol
molar heat capacity at constant pressure ([3]; 318.15 K, x1 = 0.5983): 270 ± 4.2 J/K/mol
molar heat capacity at constant pressure ([3]; 318.15 K, x1 = 0.6899): 291.9 ± 4.5 J/K/mol
molar heat capacity at constant pressure ([3]; 318.15 K, x1 = 0.7829): 316.1 ± 4.9 J/K/mol
molar heat capacity at constant pressure ([3]; 318.15 K, x1 = 0.8784): 340.9 ± 5.3 J/K/mol
